Assay results reported in patent US7550459B2, “Tetrahydroquinoline analogues as muscarinic agonists” (Acadia Pharmaceuticals, Inc., priority 2001, dated 2009).
Read-outs that look alike come from different tables or passages of the source.

Legend:
Format in all cases: cell-based
M2 muscarinic receptor = target: T1, M2 muscarinic receptor (Homo sapiens, UniProt P08172); assay: Receptor Selection and Amplification (R-SAT) assay, cloned M2 receptor; design: M2 Eff: scale not given here; conditions: for Emax: read-out: m2 % Efficacy
T1 construct: expressed in transfected cells
T1 sequence (P08172 1-466): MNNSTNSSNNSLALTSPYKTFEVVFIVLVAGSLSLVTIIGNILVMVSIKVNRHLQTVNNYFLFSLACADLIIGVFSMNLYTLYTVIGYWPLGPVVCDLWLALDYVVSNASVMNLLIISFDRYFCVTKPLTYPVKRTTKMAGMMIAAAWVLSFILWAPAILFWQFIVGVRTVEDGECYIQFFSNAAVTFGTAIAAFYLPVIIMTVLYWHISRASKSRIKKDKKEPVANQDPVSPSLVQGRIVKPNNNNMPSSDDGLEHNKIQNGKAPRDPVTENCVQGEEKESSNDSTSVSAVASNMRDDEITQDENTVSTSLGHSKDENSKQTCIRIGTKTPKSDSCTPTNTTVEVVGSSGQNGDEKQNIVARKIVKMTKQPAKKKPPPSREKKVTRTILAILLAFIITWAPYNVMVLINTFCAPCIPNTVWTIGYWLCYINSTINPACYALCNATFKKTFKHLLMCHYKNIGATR
Source text: (§1) The EC50 for an agonist is intended to denote the concentration of a compound needed to achieve 50% of a maximal response seen in an in vitro assay such as R-SAT. For inverse agonists, EC50 is intended to denote the concentration of a compound needed to achieve 50% inhibition of an R-SAT response from basal, no compound, levels.
(§2) A particularly convenient functional assay system is the receptor selection and amplification assay (R-SAT assay) in U.S. Pat. No. 5,707,798, which describes a method of screening for bioactive compounds by utilizing the ability of cells transfected with receptor DNA, e.g., coding for the different muscarinic subtypes, to amplify in the presence of a ligand of the receptor. Cell amplification is detected as increased levels of a marker also expressed by the cells.
(§3) Receptor Selection and Amplification (R-SAT) assays were carried out using the cloned M1-M5 receptors essentially as described in: Brauner-Osborne H, Brann M R. Pharmacology of muscarinic acetylcholine receptor subtypes (m1-m5): high throughput assays in mammalian cells. Eur J Pharmacol Jan. 4, 1996;295(1):93-102, and Spalding T A, Trotter C, Skjaerbaek N, Messier T L, Currier E A, Burstein E S, Li D, Hacksell U, Brann M R. Discovery of an ectopic activation site on the M(1) muscarinic receptor. Mol Pharmacol. 2002 June;61(6):1297-302.

M3 muscarinic receptor = target: T2, M3 muscarinic receptor (Homo sapiens, UniProt P20309); assay: Receptor Selection and Amplification (R-SAT) assay, cloned M3 receptor; conditions: R-SAT, second table (COMPOUND ID series)
T2 construct: expressed in transfected cells
Source text: as §1, §2, §3

M1 muscarinic receptor = target: T3, M1 muscarinic receptor (Homo sapiens, UniProt P11229); assay: Receptor Selection and Amplification (R-SAT) assay, cloned M1 receptor; design: M1 Eff: scale not given here; conditions: for Emax: read-out: m1 % Efficacy
T3 construct: expressed in transfected cells
T3 sequence (P11229 1-460): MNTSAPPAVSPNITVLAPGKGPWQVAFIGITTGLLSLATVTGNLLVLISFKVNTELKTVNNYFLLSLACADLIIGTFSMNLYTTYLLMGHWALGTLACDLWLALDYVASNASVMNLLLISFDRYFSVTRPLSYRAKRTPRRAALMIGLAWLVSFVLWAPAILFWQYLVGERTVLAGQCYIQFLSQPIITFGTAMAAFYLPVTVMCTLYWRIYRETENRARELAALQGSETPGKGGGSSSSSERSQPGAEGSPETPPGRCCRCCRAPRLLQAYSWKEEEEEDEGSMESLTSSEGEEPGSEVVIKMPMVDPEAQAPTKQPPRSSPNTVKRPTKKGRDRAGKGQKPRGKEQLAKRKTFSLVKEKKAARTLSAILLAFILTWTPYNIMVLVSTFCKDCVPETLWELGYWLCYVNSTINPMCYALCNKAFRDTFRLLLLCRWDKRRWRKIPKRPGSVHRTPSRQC
Source text: as §1, §2, §3

M4 muscarinic receptor = target: T4, M4 muscarinic receptor (Homo sapiens, UniProt P08173); assay: Receptor Selection and Amplification (R-SAT) assay, cloned M4 receptor; conditions: for Emax: read-out: m4 % Efficacy
T4 construct: expressed in transfected cells
T4 sequence (P08173 1-479): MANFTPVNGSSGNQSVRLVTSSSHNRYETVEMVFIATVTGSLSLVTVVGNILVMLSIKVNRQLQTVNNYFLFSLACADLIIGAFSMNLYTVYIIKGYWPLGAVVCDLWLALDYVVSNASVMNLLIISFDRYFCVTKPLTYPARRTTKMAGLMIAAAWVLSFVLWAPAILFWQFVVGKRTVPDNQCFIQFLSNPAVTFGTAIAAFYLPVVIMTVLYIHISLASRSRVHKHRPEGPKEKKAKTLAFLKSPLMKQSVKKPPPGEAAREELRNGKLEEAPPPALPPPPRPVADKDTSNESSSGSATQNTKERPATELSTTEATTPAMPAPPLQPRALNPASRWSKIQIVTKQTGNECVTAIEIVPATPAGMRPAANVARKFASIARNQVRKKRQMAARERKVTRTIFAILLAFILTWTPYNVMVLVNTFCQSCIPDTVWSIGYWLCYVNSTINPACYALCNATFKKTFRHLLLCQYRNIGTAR
Source text: as §1, §2, §3

[1] = R-SAT, second table (COMPOUND ID series)
[2] = R-SAT, second table (COMPOUND ID series), read-out: M2 pEC50 (converted)
[3] = R-SAT, second table (COMPOUND ID series), read-out: M1 pEC50 (converted)
[4] = R-SAT, cloned m2 receptor, read-out: m2 pEC50 (converted)
[5] = R-SAT, cloned m4 receptor, read-out: m4 pEC50 (converted)
[6] = R-SAT, cloned m1 receptor, read-out: m1 pEC50 (converted)
[7] = m2 pEC50, R-SAT, cloned m2 receptor
[8] = m1 pEC50, R-SAT, cloned m1 receptor
[9] = M2 pEC50, R-SAT, second table (COMPOUND ID series)
[10] = M1 pEC50, R-SAT, second table (COMPOUND ID series)

T2 sequence (P20309 whole entry): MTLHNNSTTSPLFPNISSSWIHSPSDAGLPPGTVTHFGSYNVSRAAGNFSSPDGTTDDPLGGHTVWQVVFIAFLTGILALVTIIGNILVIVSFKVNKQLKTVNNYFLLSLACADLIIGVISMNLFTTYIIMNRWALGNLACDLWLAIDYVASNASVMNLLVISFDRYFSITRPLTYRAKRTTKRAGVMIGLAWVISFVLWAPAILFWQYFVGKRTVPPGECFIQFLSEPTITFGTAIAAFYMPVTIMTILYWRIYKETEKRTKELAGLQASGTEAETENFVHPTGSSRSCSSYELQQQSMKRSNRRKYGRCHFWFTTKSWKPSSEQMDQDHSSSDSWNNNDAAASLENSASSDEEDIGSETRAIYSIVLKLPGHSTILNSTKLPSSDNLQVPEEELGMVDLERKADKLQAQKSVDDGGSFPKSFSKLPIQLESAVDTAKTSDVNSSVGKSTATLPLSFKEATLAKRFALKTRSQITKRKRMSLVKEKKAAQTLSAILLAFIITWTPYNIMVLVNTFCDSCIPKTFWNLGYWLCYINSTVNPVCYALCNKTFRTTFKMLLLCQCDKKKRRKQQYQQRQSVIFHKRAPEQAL

C[C@H](CN1CCC(OCC2CC2)CC1)CN1C(=O)COc2ccccc21 [Compound 00262908, 4-[(R)-3-(4-Cyclopropylmethoxypiperidin-1-yl)-2-methylpropyl]-4H-benzo[1,4]oxazin-3-one]
M2 Eff (M2 muscarinic receptor; [1]): 103 | EC50 (M2 muscarinic receptor; [2]): 631 nM | M3 Eff (M3 muscarinic receptor): 74 | EC50 (M3 muscarinic receptor; read-out: M3 pEC50 (converted)): 2510 nM | M1 Eff (M1 muscarinic receptor; [1]): 126 | EC50 (M1 muscarinic receptor; [3]): 12.6 nM

CCCCC1CCN(CCCN2CCCc3ccccc32)CC1 [Compound 55-LH-12-2, 1-[3-(4-Butyl-piperidin-1-yl)-propyl]-1,2,3,4-tetrahydro-quinoline]
Emax (M2 muscarinic receptor; R-SAT, cloned m2 receptor): 35% | EC50 (M2 muscarinic receptor; [4]): 631 nM | Emax (M4 muscarinic receptor; R-SAT, cloned m4 receptor): 68% | EC50 (M4 muscarinic receptor; [5]): 1000 nM | Emax (M1 muscarinic receptor; R-SAT, cloned m1 receptor): 72% | EC50 (M1 muscarinic receptor; [6]): 50.1 nM

CCCCCC1CC2CCC(C1)N2C[C@@H](C)CN1C(=O)CCc2ccccc21 (stereo partly drawn) [Compound 107LH55, (R)-1-[2-Methyl-3-(3-pentyl-8-azabicyclo[3.2.1]oct-8-yl)propyl]-3,4-dihydro-1H-quinolin-2-one]
EC50 (M2 muscarinic receptor; [7]): 31.6 nM | Emax (M2 muscarinic receptor): 28% | EC50 (M4 muscarinic receptor): 50.1 nM | Emax (M4 muscarinic receptor): 54% | EC50 (M1 muscarinic receptor; [8]): 1.26 nM | Emax (M1 muscarinic receptor): 103%

CCCCC1CCN(CCCN2c3cc(F)ccc3CCC2C)CC1 (centres unmarked) [Compound 77LH02-1917, 1-[3-(4-Butyl-piperidin-1-yl)-propyl]-7-fluoro-2-methyl-1,2,3,4-tetrahydro-quinoline]
Emax (M4 muscarinic receptor; R-SAT, cloned m4 receptor): 37% | EC50 (M4 muscarinic receptor; [5]): > 3160 nM | Emax (M1 muscarinic receptor; R-SAT, cloned m1 receptor): 55% | EC50 (M1 muscarinic receptor; [6]): 200 nM

CCCCC1CCN(CCCN2CCCc3cc(C)ccc32)CC1 [Compound 55LH44-A, 1-[3-(4-Butyl-piperidin-1-yl)-propyl]-6-methyl-1,2,3,4-tetrahydro-quinoline]
Emax (M4 muscarinic receptor; R-SAT, cloned m4 receptor): 28% | EC50 (M4 muscarinic receptor; [5]): > 3160 nM | Emax (M1 muscarinic receptor; R-SAT, cloned m1 receptor): 54% | EC50 (M1 muscarinic receptor; [6]): 316 nM

CCCCC1CCN(CCCN2CCOc3ccc(C)cc32)CC1 [Compound 64LHY91-6, 4-[3-(4-Butyl-piperidin-1-yl)-propyl]-6-methyl-3,4-dihydro-2H-benzo[1,4]oxazine]
Emax (M2 muscarinic receptor; R-SAT, cloned m2 receptor): 31% | EC50 (M2 muscarinic receptor; [4]): 126 nM | Emax (M4 muscarinic receptor; R-SAT, cloned m4 receptor): 52% | EC50 (M4 muscarinic receptor; [5]): 251 nM | Emax (M1 muscarinic receptor; R-SAT, cloned m1 receptor): 86% | EC50 (M1 muscarinic receptor; [6]): 63.1 nM

O=C1COc2ccc(F)cc2N1CCCN1CCC(OCC2CC2)CC1 [Compound 00262635, 4-[3-(4-Cyclopropylmethoxypiperidin-1-yl)propyl]-6-fluoro-4H-benzo[1.4]oxazin-3-one]
M2 Eff (M2 muscarinic receptor; [1]): 53 | EC50 (M2 muscarinic receptor; [2]): 794 nM | M1 Eff (M1 muscarinic receptor; [1]): 96 | EC50 (M1 muscarinic receptor; [3]): 63.1 nM

C[C@@H](CN1C(=O)COc2ccccc21)CN1[C@@H]2CC[C@H]1CC(=NOCC1CC1)C2 (mixture of isomers) [Compound 00261537, 4-[3-(3-Cyclopropylmethoxyimino-8-aza-bicyclo[3.2.1]oct-8-yl)-2(R)-methyl-propyl]-4H-benzo[1,4]oxazin-3-one]
M2 Eff (M2 muscarinic receptor; [1]): 58 | EC50 (M2 muscarinic receptor; [2]): 794 nM | M1 Eff (M1 muscarinic receptor; [1]): 126 | EC50 (M1 muscarinic receptor; [3]): 126 nM

CCOCCC1CC2CCC(C1)N2CC(C)CN1C(=O)COc2ccccc21 (single isomer, unassigned) [Compound 00262998]
EC50 (M2 muscarinic receptor; [9]): 398 nM | M2 Eff (M2 muscarinic receptor; [1]): 56 | EC50 (M1 muscarinic receptor; [10]): 7.94 nM | M1 Eff (M1 muscarinic receptor; [1]): 102

CCCCC1CCN(CCCN2c3ccccc3CCC2C)CC1 (centres unmarked) [Compound 55-LH-28-8, 1-[3-(4-Butyl-piperidin-1-yl)-propyl]-2-methyl-1,2,3,4-tetrahydro-quinoline]
Emax (M2 muscarinic receptor; R-SAT, cloned m2 receptor): 67% | EC50 (M2 muscarinic receptor; [4]): > 3160 nM | Emax (M4 muscarinic receptor; R-SAT, cloned m4 receptor): 64% | EC50 (M4 muscarinic receptor; [5]): > 3160 nM | Emax (M1 muscarinic receptor; R-SAT, cloned m1 receptor): 45% | EC50 (M1 muscarinic receptor; [6]): 200 nM

CCc1cccc2c1OCC(=O)N2CC(C)CN1CCC(OCC2CC2)CC1 (racemic) [Compound 00262867, (R,S)-4-[3-(4-Cyclopropylmethoxypiperidin-1-yl)-2-methylpropyl]-8-ethyl-4H-benzo[1,4]oxazin-3-one]
M2 Eff (M2 muscarinic receptor; [1]): 32 | EC50 (M2 muscarinic receptor; [2]): 1580 nM | M1 Eff (M1 muscarinic receptor; [1]): 104 | EC50 (M1 muscarinic receptor; [3]): 79.4 nM

O=C1COc2cc(F)c(F)cc2N1CCCN1CCC(OCC2CC2)CC1 [Compound 00262461, 4-[3-(4-Cyclopropylmethoxypiperidin-1-yl)propyl]-6,7-difluoro-4H-benzo[1.4]oxazin-3-one]
M2 Eff (M2 muscarinic receptor; [1]): 61 | EC50 (M2 muscarinic receptor; [2]): 631 nM | M1 Eff (M1 muscarinic receptor; [1]): 95 | EC50 (M1 muscarinic receptor; [3]): 50.1 nM

O=C1CCc2cc(F)c(F)cc2N1CCCN1CCC(OCC2CC2)CC1 [Compound 00262272, 1-[3-(4-Cyclopropylmethoxypiperidin-1-yl)propyl]-6,7-difluoro-3,4-dihydro-1H-quinolin-2-one]
M2 Eff (M2 muscarinic receptor; [1]): 57 | EC50 (M2 muscarinic receptor; [2]): 1000 nM | M1 Eff (M1 muscarinic receptor; [1]): 94 | EC50 (M1 muscarinic receptor; [3]): 50.1 nM

O=C1COc2cc(F)ccc2N1CCCN1[C@@H]2CC[C@H]1C[C@@H](OCC1CC1)C2 [Compound 00262571, 4-[3-(3a-Cyclopropylmethoxy-8-azabicyclo[3.2.1]oct-8-yl)propyl]-7-fluoro-4H-benzo[1.4]oxazin-3-one]
EC50 (M2 muscarinic receptor; [9]): 39.8 nM | M2 Eff (M2 muscarinic receptor; [1]): 45 | EC50 (M1 muscarinic receptor; [10]): 12.6 nM | M1 Eff (M1 muscarinic receptor; [1]): 81

COC(CN1CCC(OCC2CC2)CC1)CN1C(=O)COc2cc(F)ccc21 (racemic) [Compound 00262784, (R,S)-4-[3-(4-Cyclopropylmethoxypiperidin-1-yl)-2-methoxypropyl]-7-fluoro-4H-benzo[1.4]oxazin-3-one]
M2 Eff (M2 muscarinic receptor; [1]): 71 | EC50 (M2 muscarinic receptor; [2]): 2000 nM | M1 Eff (M1 muscarinic receptor; [1]): 94 | EC50 (M1 muscarinic receptor; [3]): 79.4 nM

CCCCCC1CC2CCC(C1)N2C[C@@H](C)CN1C(=O)COc2ccccc21 (stereo partly drawn) [Compound 108LM39-36, (R)-4-[2-Methyl-3-(3-pentyl-8-azabicyclo[3.2.1]oct-8-yl)propyl]-4H-benzo[1,4]oxazin-3-one]
EC50 (M2 muscarinic receptor; [7]): 7.94 nM | Emax (M2 muscarinic receptor): 37% | EC50 (M4 muscarinic receptor): 20 nM | Emax (M4 muscarinic receptor): 71% | EC50 (M1 muscarinic receptor; [8]): 1.58 nM | Emax (M1 muscarinic receptor): 106%

O=C1CCc2cc(F)c(F)cc2N1CCCN1[C@@H]2CC[C@H]1C[C@@H](OCC1CC1)C2 [Compound 00262572, 1-[3-(3a-Cyclopropylmethoxy-8-aza-bicyclo[3.2.1]oct-8-yl)propyl]-6,7-difluoro-3,4-dihydro-1H-quinolin-2-one]
EC50 (M2 muscarinic receptor; [9]): 200 nM | M2 Eff (M2 muscarinic receptor; [1]): 31 | EC50 (M1 muscarinic receptor; [10]): 10 nM | M1 Eff (M1 muscarinic receptor; [1]): 82
